From patent publication US7745455B2 (priority 2005, dated 2010)
Values joined by “and” are separate entries in the source; they are usually repeats but may differ in a detail not shown here. Identical values can stand only once.

Experiments:
[1] = Plasmatic 3TC levels in patients with or without ddC-boosted 3TC treatment; assay type: in vivo, human; conditions: individual HIV patients, one line per patient and date, 3TC with low dose ddC or without ddC
Method: It should be noted that for the plasma levels, the peak (post-dose) was at about 2 hours of the drug administration: this is not the case with intracellular triphosphate concentrations where the peaks might occur later than 2 hours post drug administration.

HIV [2] = assay type: in vivo; conditions: individual patients by date; 3TC lines = before ddC was started
CD4+ = CD4+ count in treated patients (immunological data); assay type: in vivo, human; conditions: individual patients by date; 3TC lines = before ddC was started
ddC phosphorylation = conditions: in vitro, identical concentration ratios of 10 to 100 μM; cited from earlier work
3TC-TP formation = conditions: in vitro; cited from earlier work
[3] = human, in vivo; cited from earlier work
HIV [4] = conditions: 300 mg instead of 150 mg; cited from earlier work
HIV [5] = conditions: cited from earlier work
3TC phosphorylation = conditions: in vitro, at extremely high ddC concentrations (10 to 100 higher than those of 3TC); cited from earlier work
[6] = human, in vivo; cited from earlier work; remark: listed apart in the source

| SMILES | concentration at 2 h ([1]; human, in vivo, 3TC plasma levels 2 h post dose) | 3TC plasma levels 2 h post dose [1] | 3TC plasma levels Pre-dose [1] | Viral load (HIV [2]) | CD4+ (CD4+) | inhibition of ddC phosphorylation (ddC phosphorylation) | extracellular concentration at which 3TC-TP formation is saturated (3TC-TP formation) | 3TC-TP levels reported in the literature [3] | effect of increased dose on 3TC-TP levels (HIV [4]) | concentration needed for antiretroviral activity (in vivo toxicity index) (HIV [5]) | toxic concentration (in vivo toxicity index) (HIV [5]) | inhibition of 3TC phosphorylation (3TC phosphorylation) | plasma levels [6] |
| --- | --- | --- | --- | --- | --- | --- | --- | --- | --- | --- | --- | --- | --- |
| Nc1ccn([C@@H]2CS[C@H](CO)O2)c(=O)n1 [3TC, 2′ deoxy-3′-thiacytidine] | 700 ng/mL | 779 ng/ml and 1 057 ng/ml | 143 ng/ml and 35 ng/ml (2×) | 291 392 ^ and 1 344 ^ and 124 and 445 | 180 and 760 and 220 and 770 | inhibited ddC phosphorylation in a concentration-dependent manner | 10 µM | 1-5 μmol/10^6 PBMC | did not significantly increased the 3TC-TP levels | – | – | – | – |
| Nc1ccn([C@H]2CC[C@@H](CO)O2)c(=O)n1 [ddC, 2′-3′-dideoxycytidine] | – | – | – | – | – | – | – | – | – | 0.1 µM | 0.2 µM | did inhibit in vitro 3TC phosphorylation | 500 to 1500 nM |
